The values that follow come from publication PMC11277489, “Novel Piperazine Derivatives of Vindoline as Anticancer Agents” (International Journal of Molecular Sciences, 2024).

In assay [1] the test system is SNB-75. As to the kind of experiment: NCI60 one-dose screen (10 μM), CNS Cancer. The class given is cell-based, human. As to conditions: Homo sapiens.
The test system of assay [2] is KM12. As to the kind of experiment: NCI60 one-dose screen (10 μM), Colon Cancer. Format: cell-based, human. The settings on record: Homo sapiens.
For assay [3], the system named is NCI-H226. Description: NCI60 one-dose screen (10 μM), Non-small Cell Lung Cancer. The class given is cell-based. As to conditions: Homo sapiens.
Assay [4] concerns OVCAR-5. As to the kind of experiment: NCI60 one-dose screen (10 μM), Ovarian Cancer. The class given is cell-based. The settings on record: Homo sapiens.
The test system of assay [5] is DU-145. As to the kind of experiment: NCI60 one-dose screen (10 μM), Prostate Cancer. The class given is cell-based. The settings on record: Homo sapiens.
The test system of assay [6] is HOP-92. Description: NCI60 one-dose screen (10 μM), Non-small Cell Lung Cancer. The settings on record: Homo sapiens. Format: cell-based.
For assay [7], the system named is UO-31. As to the kind of experiment: NCI60 one-dose screen (10 μM), Renal Cancer. The class given is cell-based. The settings on record: Homo sapiens.
Assay [8] has as its system SK-MEL-2. As to the kind of experiment: NCI60 one-dose screen (10 μM), Melanoma. Format: cell-based. The settings on record: Homo sapiens.
In assay [9] the test system is BT-549. As to the kind of experiment: NCI60 one-dose screen (10 μM), Breast Cancer. Format: cell-based. As to conditions: Homo sapiens.
The subject of assay [10] is MDA-MB-231/ATCC. As to the kind of experiment: NCI60 one-dose screen (10 μM), Breast Cancer. The class given is cell-based, human. As to conditions: Homo sapiens.
For assay [11], the system named is OVCAR-3. As to the kind of experiment: NCI60 one-dose screen (10 μM), Ovarian Cancer. Format: cell-based. The settings on record: Homo sapiens.
Assay [12] deals with MDA-MB-468. Description: NCI60 one-dose screen (10 μM), Breast Cancer. The class given is cell-based. As to conditions: Homo sapiens.
In assay [13] the test system is SK-OV-3. Description: NCI60 one-dose screen (10 μM), Ovarian Cancer. As to conditions: Homo sapiens. The class given is cell-based.
Assay [14] has as its system NCI/ADR-RES. Description: NCI60 one-dose screen (10 μM), Ovarian Cancer. The settings on record: Homo sapiens, read-out: Growth percent rate. Format: cell-based.
Assay [15] has as its system PC-3. Description: NCI60 one-dose screen (10 μM), Prostate Cancer. The class given is cell-based. The settings on record: Homo sapiens.
Assay [16] relates to CCRF-CEM. As to the kind of experiment: NCI60 one-dose screen (10 μM), Leukemia. Format: cell-based. The settings on record: Homo sapiens, read-out: Growth percent rate.
For assay [17], the system named is T-47D. As to the kind of experiment: NCI60 one-dose screen (10 μM), Breast Cancer. Format: cell-based. As to conditions: Homo sapiens, T47D, read-out: Growth percent rate.
Assay [18] deals with UACC-62. As to the kind of experiment: NCI60 one-dose screen (10 μM), Melanoma. Format: cell-based. The settings on record: Homo sapiens.
Assay [19] has as its system SR. Description: NCI60 one-dose screen (10 μM), Leukemia. Format: cell-based. The settings on record: Homo sapiens, 10 μM, Leukemia, read-out: Growth percent rate.
Where [20] appears, read: SNB-75, read-out: Growth percent rate.
The mark [21] stands for this setting: KM12, read-out: Growth percent rate.
The mark [22] stands for this setting: NCI-H226, read-out: Growth percent rate.
Setting [23] is: OVCAR-5, read-out: Growth percent rate.
The mark [24] stands for this setting: DU-145, read-out: Growth percent rate.
The mark [25] stands for this setting: HOP-92, read-out: Growth percent rate.
Setting [26] is: UO-31, read-out: Growth percent rate.
[27] abbreviates: SK-MEL-2, read-out: Growth percent rate.
The mark [28] stands for this setting: BT-549, read-out: Growth percent rate.
[29] abbreviates: MDA-MB-231, read-out: Growth percent rate.
Where [30] appears, read: OVCAR-3, read-out: Growth percent rate.
Setting [31] is: MDA-MB-468, read-out: Growth percent rate.
The mark [32] stands for this setting: PC-3, read-out: Growth percent rate.
Where [33] appears, read: 10 μM, SNB-75, CNS Cancer, read-out: Growth percent rate.
Setting [34] is: 10 μM, KM12, Colon Cancer, read-out: Growth percent rate.
[35] abbreviates: 10 μM, OVCAR-5, Ovarian Cancer, read-out: Growth percent rate.
Setting [36] is: 10 μM, DU-145, Prostate Cancer, read-out: Growth percent rate.
Where [37] appears, read: 10 μM, HOP-92, Non-small Cell Lung Cancer, read-out: Growth percent rate.
[38] abbreviates: 10 μM, UO-31, Renal Cancer, read-out: Growth percent rate.
The mark [39] stands for this setting: 10 μM, SK-MEL-2, Melanoma, read-out: Growth percent rate.
The mark [40] stands for this setting: 10 μM, MDA-MB-231/ATCC, Breast Cancer, read-out: Growth percent rate.
[41] abbreviates: 10 μM, OVCAR-3, Ovarian Cancer, read-out: Growth percent rate.
[42] abbreviates: 10 μM, MDA-MB-468, Breast Cancer, read-out: Growth percent rate.
Where [43] appears, read: 10 μM, UACC-62, Melanoma, read-out: Growth percent rate.
Where [44] appears, read: 10 μM, SK-OV-3, Ovarian Cancer, read-out: Growth percent rate.
The mark [45] stands for this setting: 10 μM, PC-3, Prostate Cancer, read-out: Growth percent rate.

Where two headings read alike, the source gives them in different places.

`CCC12C=CCN3CC[C@@]4(c5ccc(OC)cc5N(C)[C@H]4[C@@](O)(C(=O)OC)[C@@H]1OC(C)=O)[C@@H]32` (some centres unmarked) [Compound 1, vindoline]: the activity at 10 µM in assay [1] (setting [20]) stood at 119%; in [2] (setting [21]), 108%; in assay [3] (setting [22]), 92.3%; in [4] (setting [23]), 107%; in [5] (setting [24]), 119%; in [6] (setting [25]), 109%. The activity at 10 µM was 84.6% in [7] (setting [26]); 106% in [8] (setting [27]); 106% in [9] (setting [28]); 113% in assay [10] (setting [29]); 127% in assay [11] (setting [30]); 134% in assay [12] (setting [31]). In addition, the activity at 10 µM in assay [13] (SK-OV-3, read-out: Growth percent rate) stood at 102%; in assay [14], 107%; in [15] (setting [32]) it was 98.6%; in [16], 102%.
Turning to `CCC12C=CCN3CCC4(c5ccc(OC)cc5N(C)C4C(O)(C(=O)OC)C1OC(=O)CCCN1CCN(C)CC1)C32` (centres unmarked) [Compound 3], the activity at 10 µM in [1] (setting [33]) stood at 85.3%; in assay [2] (setting [34]), 85.3%; in assay [4] (setting [35]), 96.4%; in [5] (setting [36]), 99.6%; in [6] (setting [37]) it was 80.9%; in assay [7] (setting [38]), 75.8%. The activity at 10 µM in assay [8] (setting [39]) was found to be 84.7%; in [10] (setting [40]) it was 80.4%; in assay [11] (setting [41]), 78.1%; in assay [17] (10 μM, T-47D, Breast Cancer), 90.9%; in [12] (setting [42]), 70.5%; in assay [18] (setting [43]), 83.2%. Moreover, the activity at 10 µM in assay [13] (setting [44]) came to 93.3%; in [14] (10 μM, Ovarian Cancer), 94.7%; in assay [15] (setting [45]) it was 92.9%; in assay [16] (10 μM, Leukemia), 108%.
Take `CCC12C=CCN3CCC4(c5ccc(OC)cc5N(C)C4C(O)(C(=O)OC)C1O)C32` (centres unmarked) [Compound 13, 17-desacetylvindoline]: the activity at 10 µM in [1] (setting [20]) is 84.9%; in assay [2] (setting [21]) it was 103%; in assay [3] (setting [22]), 88.5%; in assay [4] (setting [23]), 91.2%; in assay [5] (setting [24]), 110%; in assay [6] (setting [25]), 88.6%. Also, the activity at 10 µM in assay [7] (setting [26]) came out at 87.6%; in assay [8] (setting [27]) it was 116%; in assay [9] (setting [28]), 101%; in assay [10] (setting [29]) it was 101%; in [11] (setting [30]), 112%; in assay [17], 108%. Besides, the activity at 10 µM was determined as 92.2% in assay [12] (setting [31]); 90.7% in [18] (UACC-62, read-out: Growth percent rate); 99.4% in assay [14]; 96.5% in assay [15] (setting [32]); 103% in assay [16].
As for `CCC12C=CCN3CCC4(c5ccc(OC)cc5N(C)C4C(O)(C(=O)OC)C1OC(=O)CCCBr)C32` (centres unmarked) [Compound 14, 17-(O-4-bromobutanoyl)vindoline], the activity at 10 µM in assay [1] (setting [33]) worked out at 92.6%; in [2] (setting [34]), 100%; in assay [3] (10 μM, NCI-H226, Non-small Cell Lung Cancer, read-out: Growth percent rate) it was 96%; in assay [4] (setting [35]), 101%; in assay [5] (setting [36]), 99.6%; in assay [6] (setting [37]) it was 77.6%. Also, the activity at 10 µM in [7] (setting [38]) stood at 82.5%; in assay [8] (setting [39]), 103%; in assay [9] (10 μM, BT-549, Breast Cancer, read-out: Growth percent rate) it was 99.1%; in [10] (setting [40]), 90.6%; in assay [11] (setting [41]), 99.7%; in assay [17] (10 μM, T-47D, Breast Cancer), 77.2%. For the same molecule, the activity at 10 µM was 95.7% in assay [12] (setting [42]); 98.4% in assay [19]; 83.8% in [18] (setting [43]); 101% in assay [13] (setting [44]); 89.2% in [14] (10 μM, Ovarian Cancer); 79% in assay [15] (setting [45]). In addition, the activity at 10 µM in assay [16] (10 μM, Leukemia) was determined as 99.8%.
